Laboratory results as given in ChEMBL document CHEMBL5113463, “Discovery and preclinical evaluations of JBD0131, a novel nitrodihydro-imidazooxazole anti-tuberculosis agent” (Bioorg Med Chem Lett, 2022).
Converted amounts (≈) assume the structure as drawn. The source made the active and inactive calls. The calls are words filed in the database; no cut-off is given here.

Columns and labels:
[1] = Cmax in CD-1 mouse at 5 mg/kg, po; format: ADME, organism-based; design: dose 5 mg/kg, route po; conditions: in vivo
[2] = AUC (0-last) in CD-1 mouse at 5 mg/kg, po; format: ADME, organism-based; design: dose 5 mg/kg, route po; conditions: mouse, in vivo
[3] = Volume of distribution in CD-1 mouse at 0.6 mg/kg, iv; format: ADME, organism-based; conditions: in vivo
[4] = Oral bioavailability in CD-1 mouse at 5 mg/kg; format: ADME, organism-based; conditions: mouse, in vivo, po, 5 mg/kg
[5] = Half life in CD-1 mouse at 0.6 mg/kg, iv; format: ADME, organism-based; conditions: in vivo
[6] = Cytotoxicity against African green monkey vero cells assessed as reduction in cell viability; format: toxicity, cell-based; conditions: chlorocebus sabaeus
[7] = tested on: Mycobacterium tuberculosis; assay: Antimycobacterial activity against Mycobacterium tuberculosis H37Rv assessed as bacterial growth inhibition incubated for 7 days by MABA assay; format: functional; conditions: 168 h, time 7 day
[8] = tested on: Mycobacterium tuberculosis; assay: Antimycobacterial activity against Mycobacterium tuberculosis H37Rv assessed as bacterial growth inhibition incubated for 10 days under hypoxic condition followed by 28 hrs incubation under normoxic condition by Low-Oxygen-Recovery Assay; format: functional; conditions: 264 h, time 11 day
[9] = target: T1, Cytochrome P450 2B6 (Homo sapiens, UniProt P20813); assay: Inhibition of CYP2B6 (unknown origin); format: ADME
T1 sequence (P20813 whole entry): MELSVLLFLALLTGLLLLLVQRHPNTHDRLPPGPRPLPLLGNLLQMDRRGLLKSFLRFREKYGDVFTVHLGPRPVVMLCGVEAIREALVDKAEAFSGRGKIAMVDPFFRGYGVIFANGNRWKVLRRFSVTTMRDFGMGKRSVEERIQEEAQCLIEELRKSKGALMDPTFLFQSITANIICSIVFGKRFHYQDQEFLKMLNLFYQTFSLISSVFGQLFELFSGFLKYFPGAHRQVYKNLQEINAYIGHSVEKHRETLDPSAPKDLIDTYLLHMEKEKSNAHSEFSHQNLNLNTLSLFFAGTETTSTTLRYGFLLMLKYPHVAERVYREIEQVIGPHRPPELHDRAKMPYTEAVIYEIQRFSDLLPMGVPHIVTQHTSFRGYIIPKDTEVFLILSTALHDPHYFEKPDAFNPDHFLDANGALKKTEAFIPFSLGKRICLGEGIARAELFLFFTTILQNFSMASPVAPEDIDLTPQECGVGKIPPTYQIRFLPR

[10] = target: T2, Cytochrome P450 1A2 (Homo sapiens, UniProt P05177); assay: Inhibition of CYP1A2 (unknown origin); format: ADME
T2 sequence (P05177 whole entry): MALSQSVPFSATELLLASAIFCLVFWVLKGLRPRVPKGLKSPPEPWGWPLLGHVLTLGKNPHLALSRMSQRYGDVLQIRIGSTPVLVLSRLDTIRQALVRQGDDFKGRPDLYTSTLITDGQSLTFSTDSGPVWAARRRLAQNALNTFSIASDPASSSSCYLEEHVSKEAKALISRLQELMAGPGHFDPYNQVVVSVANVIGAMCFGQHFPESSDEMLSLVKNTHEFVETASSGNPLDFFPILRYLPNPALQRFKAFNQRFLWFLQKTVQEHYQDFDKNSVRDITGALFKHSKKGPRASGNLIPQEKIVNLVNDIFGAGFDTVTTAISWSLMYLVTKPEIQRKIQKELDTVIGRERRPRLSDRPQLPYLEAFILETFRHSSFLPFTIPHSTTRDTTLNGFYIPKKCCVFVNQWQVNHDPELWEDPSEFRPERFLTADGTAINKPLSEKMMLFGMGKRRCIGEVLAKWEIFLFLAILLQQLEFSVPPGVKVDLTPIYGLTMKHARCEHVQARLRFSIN

[11] = tested on: Mycobacterium tuberculosis; assay: Antimycobacterial activity against Mycobacterium tuberculosis Erdman assessed as bacterial growth inhibition; format: functional
[12] = Plasma protein binding in dog assessed as bound fraction; format: ADME, cell-free, Canis lupus familiaris; conditions: read-out: PPB (converted)
[13] = target: Cytochrome P450 2D6 (Homo sapiens, UniProt P10635); assay: Inhibition of CYP2D6 (unknown origin); format: ADME
[14] = tested on: Mycobacterium tuberculosis; assay: Antimycobacterial activity against clinical isolate drug susceptible Mycobacterium tuberculosis H37Rv assessed as bacterial growth inhibition; format: functional
[15] = Plasma protein binding in rat assessed as bound fraction; format: ADME, cell-free; conditions: read-out: PPB (converted)
[16] = target: Cytochrome P450 2C19 (Homo sapiens, UniProt P33261); assay: Inhibition of CYP2C19 (unknown origin); format: ADME
[17] = Apparent permeability across apical to basolateral side in dog MDCK cells; format: ADME, cell-based, Canis lupus familiaris
[18] = Plasma protein binding in mouse assessed as bound fraction; format: ADME, cell-free; conditions: read-out: PPB (converted)
[19] = tested on: Mycobacterium tuberculosis; assay: In vivo antimycobacterial activity against Mycobacterium tuberculosis Erdman infected mouse chronic tuberculosis infection model assessed as reduction log10 CFU at 10 to 100 mg/kg for 4 weeks at 5 days/week administered after 31 days post infection relative to control; format: functional; conditions: dose 10-100 mg/kg
[20] = Metabolic stability in human liver microsomes assessed as half life; format: ADME, Microsome
[21] = target: Cytochrome P450 2C9 (Homo sapiens, UniProt P11712); assay: Inhibition of CYP2C9 (unknown origin); format: ADME
[22] = Metabolic stability in mouse liver microsomes assessed as half life; format: ADME, Microsome
[23] = Plasma protein binding in human assessed as bound fraction; format: ADME, cell-free; conditions: read-out: PPB (converted)
[24] = tested on: Mycobacterium tuberculosis; assay: In vivo antimycobacterial activity against Mycobacterium tuberculosis Erdman infected mouse acute tuberculosis infection model assessed as reduction lung bacterial loads by measuring CFU at 10 to 100 mg/kg for 3 weeks at 5 days/week; format: functional, organism-based; conditions: dose 10-100 mg/kg, DDE = dose-dependent effect
[25] = target: Voltage-gated inwardly rectifying potassium channel KCNH2 (Homo sapiens, UniProt Q12809); assay: Inhibition of human ERG; format: toxicity
[26] = Metabolic stability in rat liver microsomes assessed as half life; format: ADME, Microsome
[27] = target: Cytochrome P450 3A4 (Homo sapiens, UniProt P08684); assay: Inhibition of CYP3A4 (unknown origin); format: ADME
[28] = target: T3, Cytochrome P450 2C8 (Homo sapiens, UniProt P10632); assay: Inhibition of CYP2C8 (unknown origin); format: ADME
T3 sequence (P10632 whole entry): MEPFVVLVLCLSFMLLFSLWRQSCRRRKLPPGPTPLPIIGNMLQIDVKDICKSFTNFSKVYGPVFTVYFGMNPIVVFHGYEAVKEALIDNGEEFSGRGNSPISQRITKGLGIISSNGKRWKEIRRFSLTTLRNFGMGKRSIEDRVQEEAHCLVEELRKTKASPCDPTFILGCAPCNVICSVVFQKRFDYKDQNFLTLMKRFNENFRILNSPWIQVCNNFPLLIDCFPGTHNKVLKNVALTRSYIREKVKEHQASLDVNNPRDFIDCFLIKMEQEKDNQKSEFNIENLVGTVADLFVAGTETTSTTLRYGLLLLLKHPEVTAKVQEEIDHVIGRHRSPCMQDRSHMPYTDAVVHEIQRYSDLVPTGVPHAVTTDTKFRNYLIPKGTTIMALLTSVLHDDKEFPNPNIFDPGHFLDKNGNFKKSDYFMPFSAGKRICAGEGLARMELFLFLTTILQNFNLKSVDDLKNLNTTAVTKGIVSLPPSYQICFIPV

[29] = Metabolic stability in human assessed as half life; format: ADME
[30] = tested on: Mycobacterium tuberculosis; assay: In vivo antimycobacterial activity against Mycobacterium tuberculosis Erdman infected mouse acute tuberculosis infection model assessed as reduction lung bacterial load by measuring CFU at 15 mg/kg for 3 weeks at 5 days/week; format: functional, organism-based
[31] = target: Sodium channel protein type 5 subunit alpha (Homo sapiens, UniProt Q14524); assay: Inhibition of NaV 1.5 (unknown origin)
[32] = AUC (0-last) in Beagle dog at 2 mg/kg, po; format: ADME, organism-based, Canis lupus familiaris; conditions: in vivo
[33] = Cmax in Sprague-Dawley rat at 4 mg/kg, po; format: ADME, organism-based; design: dose 4 mg/kg, route po; conditions: in vivo
[34] = target: T4, A-type voltage-gated potassium channel KCND3 (Homo sapiens, UniProt Q9UK17); assay: Inhibition of Kv4.3 (unknown origin)
T4 sequence (Q9UK17 whole entry): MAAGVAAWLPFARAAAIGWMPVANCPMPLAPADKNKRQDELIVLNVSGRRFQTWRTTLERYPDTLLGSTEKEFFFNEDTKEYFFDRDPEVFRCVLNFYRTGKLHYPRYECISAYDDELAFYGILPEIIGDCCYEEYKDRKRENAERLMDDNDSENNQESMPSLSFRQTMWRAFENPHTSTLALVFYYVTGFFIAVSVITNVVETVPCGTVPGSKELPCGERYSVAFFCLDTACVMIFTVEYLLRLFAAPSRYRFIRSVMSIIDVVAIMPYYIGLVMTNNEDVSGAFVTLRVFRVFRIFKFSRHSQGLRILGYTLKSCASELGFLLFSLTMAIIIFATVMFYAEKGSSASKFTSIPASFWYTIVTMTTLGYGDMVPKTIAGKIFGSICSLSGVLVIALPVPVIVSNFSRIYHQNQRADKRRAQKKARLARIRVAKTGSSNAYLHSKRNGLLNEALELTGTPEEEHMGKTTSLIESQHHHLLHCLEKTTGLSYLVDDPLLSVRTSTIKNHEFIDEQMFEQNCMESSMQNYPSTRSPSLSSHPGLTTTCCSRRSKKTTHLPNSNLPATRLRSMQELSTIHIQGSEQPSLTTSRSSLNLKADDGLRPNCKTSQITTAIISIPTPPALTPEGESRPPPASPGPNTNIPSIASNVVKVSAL

[35] = Half life in Beagle dog at 0.5 mg/kg, iv; format: ADME, organism-based, Canis lupus familiaris; conditions: in vivo
[36] = target: Voltage-dependent L-type calcium channel subunit alpha-1C (Homo sapiens, UniProt Q13936); assay: Inhibition of human Cav1.2
[37] = Cmax in Beagle dog at 2 mg/kg, po; format: ADME, organism-based, Canis lupus familiaris; design: dose 2 mg/kg, route po; conditions: in vivo
[38] = Half life in Sprague-Dawley rat at 1 mg/kg, iv; format: ADME, organism-based; conditions: in vivo
[39] = AUC (0-last) in Sprague-Dawley rat at 4 mg/kg, po; format: ADME, organism-based; conditions: in vivo

Chain of Voltage-gated inwardly rectifying potassium channel KCNH2 (Q12809 whole entry): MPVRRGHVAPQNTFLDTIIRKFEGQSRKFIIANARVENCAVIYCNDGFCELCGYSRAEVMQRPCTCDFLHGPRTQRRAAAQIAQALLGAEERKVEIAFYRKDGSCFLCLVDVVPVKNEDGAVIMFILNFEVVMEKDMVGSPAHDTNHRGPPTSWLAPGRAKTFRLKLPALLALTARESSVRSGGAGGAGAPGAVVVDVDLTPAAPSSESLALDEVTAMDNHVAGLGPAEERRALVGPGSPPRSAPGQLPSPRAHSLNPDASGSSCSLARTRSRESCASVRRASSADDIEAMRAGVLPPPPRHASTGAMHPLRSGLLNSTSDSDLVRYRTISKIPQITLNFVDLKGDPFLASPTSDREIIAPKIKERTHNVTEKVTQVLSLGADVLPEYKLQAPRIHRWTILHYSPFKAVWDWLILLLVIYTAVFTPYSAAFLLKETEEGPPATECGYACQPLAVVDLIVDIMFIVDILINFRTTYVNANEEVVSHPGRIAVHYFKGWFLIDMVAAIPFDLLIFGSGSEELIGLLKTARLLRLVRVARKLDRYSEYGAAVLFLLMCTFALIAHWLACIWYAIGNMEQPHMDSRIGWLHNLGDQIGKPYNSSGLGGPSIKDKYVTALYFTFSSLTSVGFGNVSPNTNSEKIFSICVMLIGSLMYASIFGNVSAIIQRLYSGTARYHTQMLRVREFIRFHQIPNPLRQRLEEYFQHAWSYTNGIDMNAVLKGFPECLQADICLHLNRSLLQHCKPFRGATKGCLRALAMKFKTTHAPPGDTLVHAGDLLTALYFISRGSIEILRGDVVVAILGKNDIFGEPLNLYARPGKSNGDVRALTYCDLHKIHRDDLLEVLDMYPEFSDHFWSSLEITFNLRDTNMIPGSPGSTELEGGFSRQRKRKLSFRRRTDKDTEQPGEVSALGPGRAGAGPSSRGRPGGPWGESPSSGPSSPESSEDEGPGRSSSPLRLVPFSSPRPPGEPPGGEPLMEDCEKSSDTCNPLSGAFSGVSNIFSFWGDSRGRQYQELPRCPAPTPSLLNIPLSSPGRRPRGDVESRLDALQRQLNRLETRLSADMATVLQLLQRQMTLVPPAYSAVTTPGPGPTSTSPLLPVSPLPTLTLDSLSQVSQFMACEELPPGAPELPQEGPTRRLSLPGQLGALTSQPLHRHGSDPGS
Chain of Cytochrome P450 2C9 (P11712 whole entry): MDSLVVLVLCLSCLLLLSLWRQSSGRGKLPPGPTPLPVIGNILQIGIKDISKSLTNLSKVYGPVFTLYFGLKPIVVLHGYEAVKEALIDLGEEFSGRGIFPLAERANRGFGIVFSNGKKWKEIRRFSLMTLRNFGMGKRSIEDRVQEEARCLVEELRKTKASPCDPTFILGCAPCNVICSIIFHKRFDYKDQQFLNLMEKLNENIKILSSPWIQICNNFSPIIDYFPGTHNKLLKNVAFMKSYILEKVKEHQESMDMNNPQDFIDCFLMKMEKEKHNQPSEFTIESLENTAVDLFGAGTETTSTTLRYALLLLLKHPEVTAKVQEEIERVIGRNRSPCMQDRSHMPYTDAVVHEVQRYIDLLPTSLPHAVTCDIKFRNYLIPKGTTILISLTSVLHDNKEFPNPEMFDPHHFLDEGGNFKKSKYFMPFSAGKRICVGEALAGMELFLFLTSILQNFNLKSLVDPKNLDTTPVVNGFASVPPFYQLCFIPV
Chain of Cytochrome P450 3A4 (P08684 whole entry): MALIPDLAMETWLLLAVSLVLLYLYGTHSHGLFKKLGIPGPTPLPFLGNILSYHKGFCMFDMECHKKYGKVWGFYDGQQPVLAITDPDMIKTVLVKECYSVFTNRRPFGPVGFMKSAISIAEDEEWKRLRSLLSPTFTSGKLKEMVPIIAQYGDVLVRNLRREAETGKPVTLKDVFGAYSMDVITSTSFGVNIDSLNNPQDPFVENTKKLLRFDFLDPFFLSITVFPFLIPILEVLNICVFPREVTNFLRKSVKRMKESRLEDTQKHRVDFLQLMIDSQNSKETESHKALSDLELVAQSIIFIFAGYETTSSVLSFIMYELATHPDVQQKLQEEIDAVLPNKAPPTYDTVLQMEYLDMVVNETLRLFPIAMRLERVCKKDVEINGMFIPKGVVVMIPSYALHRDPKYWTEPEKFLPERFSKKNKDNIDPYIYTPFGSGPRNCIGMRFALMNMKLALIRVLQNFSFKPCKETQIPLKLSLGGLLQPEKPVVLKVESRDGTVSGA
Chain of Voltage-dependent L-type calcium channel subunit alpha-1C (Q13936 whole entry): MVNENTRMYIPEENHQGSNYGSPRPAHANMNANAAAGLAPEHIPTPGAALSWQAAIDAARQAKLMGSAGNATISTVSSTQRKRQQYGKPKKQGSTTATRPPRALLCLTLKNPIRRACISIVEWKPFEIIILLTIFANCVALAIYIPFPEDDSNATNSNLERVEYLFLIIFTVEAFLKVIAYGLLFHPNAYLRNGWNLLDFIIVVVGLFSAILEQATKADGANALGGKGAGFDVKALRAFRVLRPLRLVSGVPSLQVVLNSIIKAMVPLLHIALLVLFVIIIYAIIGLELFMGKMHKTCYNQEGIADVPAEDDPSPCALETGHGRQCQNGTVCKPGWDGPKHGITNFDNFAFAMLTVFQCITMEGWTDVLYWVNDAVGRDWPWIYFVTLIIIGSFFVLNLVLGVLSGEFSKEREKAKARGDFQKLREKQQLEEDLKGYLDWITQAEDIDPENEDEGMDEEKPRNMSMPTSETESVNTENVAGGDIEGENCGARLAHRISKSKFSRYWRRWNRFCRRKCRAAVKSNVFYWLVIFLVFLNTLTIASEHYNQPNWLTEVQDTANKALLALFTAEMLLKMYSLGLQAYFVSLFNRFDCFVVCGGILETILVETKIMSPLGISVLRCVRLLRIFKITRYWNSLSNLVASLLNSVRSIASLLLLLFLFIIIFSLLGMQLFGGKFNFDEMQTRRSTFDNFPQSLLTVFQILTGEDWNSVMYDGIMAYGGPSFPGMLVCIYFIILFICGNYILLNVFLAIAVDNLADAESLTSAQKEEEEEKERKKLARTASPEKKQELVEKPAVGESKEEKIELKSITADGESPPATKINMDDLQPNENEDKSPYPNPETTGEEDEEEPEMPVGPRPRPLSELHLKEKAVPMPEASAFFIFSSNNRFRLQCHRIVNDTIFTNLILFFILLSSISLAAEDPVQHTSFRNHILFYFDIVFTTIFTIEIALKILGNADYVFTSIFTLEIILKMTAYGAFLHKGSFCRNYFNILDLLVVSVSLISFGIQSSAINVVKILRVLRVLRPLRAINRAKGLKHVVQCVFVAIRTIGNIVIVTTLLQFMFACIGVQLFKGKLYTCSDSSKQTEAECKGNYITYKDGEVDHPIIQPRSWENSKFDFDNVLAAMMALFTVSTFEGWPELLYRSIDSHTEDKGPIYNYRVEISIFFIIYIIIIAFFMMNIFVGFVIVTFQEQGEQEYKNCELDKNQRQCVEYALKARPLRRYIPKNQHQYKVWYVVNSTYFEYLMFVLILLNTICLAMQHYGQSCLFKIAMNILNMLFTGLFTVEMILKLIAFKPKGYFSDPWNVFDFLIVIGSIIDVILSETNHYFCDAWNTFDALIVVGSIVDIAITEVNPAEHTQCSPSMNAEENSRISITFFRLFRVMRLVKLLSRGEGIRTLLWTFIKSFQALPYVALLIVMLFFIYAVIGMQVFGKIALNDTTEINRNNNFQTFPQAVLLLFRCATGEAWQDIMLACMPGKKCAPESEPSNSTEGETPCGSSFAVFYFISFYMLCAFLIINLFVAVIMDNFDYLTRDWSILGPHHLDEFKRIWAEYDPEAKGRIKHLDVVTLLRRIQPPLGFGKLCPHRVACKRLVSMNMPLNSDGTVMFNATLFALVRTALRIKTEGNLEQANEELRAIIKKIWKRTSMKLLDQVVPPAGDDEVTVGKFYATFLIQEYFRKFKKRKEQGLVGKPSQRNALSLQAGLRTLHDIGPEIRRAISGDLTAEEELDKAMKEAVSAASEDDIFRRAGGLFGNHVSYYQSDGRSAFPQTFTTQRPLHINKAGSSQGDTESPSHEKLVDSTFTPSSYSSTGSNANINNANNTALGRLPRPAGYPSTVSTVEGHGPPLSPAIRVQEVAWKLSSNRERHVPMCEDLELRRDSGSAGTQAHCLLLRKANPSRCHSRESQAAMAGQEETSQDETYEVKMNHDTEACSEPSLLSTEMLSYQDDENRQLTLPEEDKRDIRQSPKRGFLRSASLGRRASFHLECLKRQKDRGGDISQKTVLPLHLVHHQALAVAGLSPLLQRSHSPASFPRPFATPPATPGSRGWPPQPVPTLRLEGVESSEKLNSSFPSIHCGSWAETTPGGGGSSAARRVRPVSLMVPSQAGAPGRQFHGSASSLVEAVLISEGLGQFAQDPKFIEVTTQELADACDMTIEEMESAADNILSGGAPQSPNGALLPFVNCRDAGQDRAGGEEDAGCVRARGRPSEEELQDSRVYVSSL
Chain of Cytochrome P450 2D6 (P10635 whole entry): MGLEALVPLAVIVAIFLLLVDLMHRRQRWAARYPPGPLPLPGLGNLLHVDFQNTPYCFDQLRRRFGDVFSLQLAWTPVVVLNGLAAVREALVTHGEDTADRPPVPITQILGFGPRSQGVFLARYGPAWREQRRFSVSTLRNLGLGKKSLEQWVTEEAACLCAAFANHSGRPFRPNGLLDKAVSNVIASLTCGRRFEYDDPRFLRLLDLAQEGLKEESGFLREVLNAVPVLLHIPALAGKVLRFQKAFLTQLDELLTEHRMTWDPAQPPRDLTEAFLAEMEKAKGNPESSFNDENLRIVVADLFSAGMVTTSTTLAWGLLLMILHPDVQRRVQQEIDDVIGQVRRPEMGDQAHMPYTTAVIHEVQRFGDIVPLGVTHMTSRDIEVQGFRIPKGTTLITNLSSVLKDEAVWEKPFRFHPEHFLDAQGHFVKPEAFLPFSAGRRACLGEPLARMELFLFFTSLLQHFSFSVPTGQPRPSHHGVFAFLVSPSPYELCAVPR

Structure (SMILES): Cc1cc(F)ccc1-c1nc2c(s1)CN(C[C@@]1(C)Cn3cc([N+](=O)[O-])nc3O1)C2
- Cmax [1]: 201 ng/mL
- AUClast [2]: 1441 ng·h/mL
- Vd [3]: 3.38 L/kg
- F [4]: 20.5%
- half-life [5]: 2.06 h
- CC50 [6]: > 32 µg/mL
- MIC [7]: < 0.013 µg/mL

Structure (SMILES): C[C@]1(COc2ccc(N3CCC(Oc4ccc(OC(F)(F)F)cc4)CC3)cc2)Cn2cc([N+](=O)[O-])nc2O1
- MIC [8]: 0.61 µg/mL (≈ 1.14 µM)
- IC50 [9]: > 100 µM
- IC50 [10]: > 100 µM
- MIC [11]: 0.015 µg/mL (≈ 0.0281 µM)
- fraction unbound [12]: 0.005
- IC50 [13]: > 100 µM
- MIC50 [14]: 0.002 µg/mL (≈ 0.00374 µM)
- MIC90 [14]: 0.004 µg/mL (≈ 0.00748 µM)
- fraction unbound [15]: 0.004
- IC50 [16]: > 100 µM
- Papp A→B [17]: 0.09 ×10⁻⁶ cm/s
- fraction unbound [18]: 0.005
- Activity [19]: 1 log10CFU
- half-life [20]: 1.4 h
- IC50 [21]: > 100 µM
- half-life [22]: > 2.42 h
- fraction unbound [23]: 0.005
- CC50 [6]: > 32 µg/mL
- Activity [24]: Dde
- IC50 [25]: > 30 µM
- MIC [7]: 0.006 µg/mL (≈ 0.0112 µM)
- half-life [26]: > 2.42 h
- IC50 [27]: > 100 µM
- IC50 [28]: > 100 µM

Structure (SMILES): C[C@]1(COc2ccc(N3CCC(Oc4ccc(OC(F)(F)F)cc4)CC3)cc2)CN=C(N)O1 [DM-6705]
- half-life [29]: 122 h
- IC50 [25]: 0.082 µM

Structure (SMILES): C[C@]1(CN2CCc3nc(-c4ccc(F)cc4)ccc3C2)Cn2cc([N+](=O)[O-])nc2O1
- MIC [8]: 4.83 µg/mL (≈ 11.8 µM)
- half-life [20]: 0.417 h
- half-life [22]: 0.367 h
- CC50 [6]: > 32 µg/mL
- MIC [7]: < 0.031 µg/mL
- half-life [26]: 0.1 h

Structure (SMILES): NNC(=O)c1ccncc1 [ISONIAZID]
- MIC50 [14]: 0.024 µg/mL (≈ 0.175 µM)
- MIC90 [14]: 0.034 µg/mL (≈ 0.248 µM)

Structure (SMILES): CO[C@H]1/C=C/O[C@@]2(C)Oc3c(C)c(O)c4c(O)c(c(/C=N/N5CCN(C)CC5)c(O)c4c3C2=O)NC(=O)/C(C)=C\C=C\[C@H](C)[C@H](O)[C@@H](C)[C@@H](O)[C@@H](C)[C@H](OC(C)=O)[C@@H]1C [RIFAMPIN]
- MIC50 [14]: 0.035 µg/mL (≈ 0.0425 µM)
- MIC90 [14]: 0.064 µg/mL (≈ 0.0778 µM)
- Activity [30]: Active

Structure (SMILES): C[C@]1(CN2Cc3nc(-c4ccc(F)cc4)sc3C2)Cn2cc([N+](=O)[O-])nc2O1
- IC50 [31]: 12.9 µM
- AUClast [32]: 166 ng·h
- Cmax [33]: 57.9 nM
- IC50 [34]: > 40 µM
- IC50 [25]: 1.69 µM
- half-life [35]: 15.3 h
- IC50 [36]: 13.3 µM
- Cmax [37]: 5.82 nM
- half-life [38]: 4.65 h
- AUClast [39]: 574 ng·h
